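Where inhibition never reached the appropriate level, the endpoint shown equals the highest concentration tested. Otherwise, values were interpolated linearly from a five-concentration, 48-hour dose response in 96-well plates. TGI is the concentration that stops growth completely.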

Test systems include OVCAR-4 ovarian; SK-MEL-2 melanoma; COLO 205 colon; SF-539 CNS; PC-3 prostate; KM12 colon; CAKI-1 renal; SR leukemia; NCI-H522 lung; HL-60(TB) leukemia.
Holding throughout (assay): NCI-60 cell line screen, 48 h

`O=c1[nH]nc(-c2ccccc2)n1/N=C/c1cccc([N+](=O)[O-])c1`: the TGI in the test on OVCAR-4 ovarian, with SK-MEL-2 melanoma, with COLO 205 colon, with SF-539 CNS, in the test on PC-3 prostate and in the test on KM12 colon was over 100 µM each time. Besides, the TGI in the test on CAKI-1 renal, in the test with SR leukemia, with NCI-H522 lung and in the test with HL-60(TB) leukemia was over 100 µM throughout.
For `COc1c2c(nc3ccccc13)-c1cc(C(CC(=O)OC(C)(C)C)C(=O)OC(C)C)c(CO)c(=O)n1C2` (stereo not drawn), the TGI was over 100 µM with OVCAR-4 ovarian; over 100 µM in the test with SK-MEL-2 melanoma; over 100 µM with COLO 205 colon; 98.4 µM in the test with SF-539 CNS; over 100 µM in the test with PC-3 prostate; over 100 µM in the test with KM12 colon. Besides, the TGI in the test on CAKI-1 renal, with SR leukemia, in the test with NCI-H522 lung and in the test on HL-60(TB) leukemia was over 100 µM in each case.
With `Cc1ccc(O)c(C2=CC3=NNC(=O)C3C(c3cccc(Cl)c3)C2)c1` (stereo not drawn), the TGI was 44.3 µM in the test on OVCAR-4 ovarian; 86.2 µM in the test with SK-MEL-2 melanoma; 30.4 µM in the test on COLO 205 colon; over 100 µM in the test with SF-539 CNS; over 100 µM in the test on PC-3 prostate; 55.1 µM in the test with KM12 colon. Besides, the TGI with CAKI-1 renal, with SR leukemia and in the test with HL-60(TB) leukemia was over 100 µM in each case.
As for `CO/N=C\c1ccc2c(c1)Sc1ccccc1O2`, the TGI in the test on OVCAR-4 ovarian, with SK-MEL-2 melanoma, in the test on COLO 205 colon, in the test on SF-539 CNS, with PC-3 prostate and with KM12 colon was over 100 µM throughout. The TGI with CAKI-1 renal, in the test with SR leukemia and in the test with HL-60(TB) leukemia was over 100 µM in each case.
Take `O=C1CCC[C@H]2O[C@@H](COC(=O)c3ccccc3)C[C@H]2O1`: the TGI with OVCAR-4 ovarian, in the test with SK-MEL-2 melanoma, in the test with COLO 205 colon, with SF-539 CNS, in the test with PC-3 prostate and with KM12 colon was over 100 µM in each case. Further, the TGI with CAKI-1 renal, with SR leukemia and with HL-60(TB) leukemia was over 100 µM throughout.
For `CC(=O)O[C@H]1CC[C@@]2(C)C(=CC[C@@H]3[C@@H]2CC[C@]2(C)c4c(n[nH]c4C)C[C@@H]32)C1`, the TGI in the test with OVCAR-4 ovarian was determined as 33.3 µM; with COLO 205 colon, 35.4 µM; in the test on PC-3 prostate it was 58.2 µM; in the test with KM12 colon, 37.4 µM; with CAKI-1 renal, 32.5 µM; in the test with SR leukemia, 58.7 µM. In addition, the TGI with NCI-H522 lung was 23 µM; with HL-60(TB) leukemia it was 28.4 µM.
As for `COc1ccc2cc(CNCCCCCCCCNCc3ccc4cc(OC)ccc4c3)ccc2c1`, the TGI in the test on OVCAR-4 ovarian was 9.55 µM; in the test with SK-MEL-2 melanoma, 24.7 µM; in the test with COLO 205 colon it was 29.6 µM; in the test on PC-3 prostate, 6.91 µM; with CAKI-1 renal, over 100 µM; with SR leukemia, 2.76 µM. Besides, the values for the TGI with NCI-H522 lung and in the test with HL-60(TB) leukemia were 69.4 µM and 15.2 µM, respectively.
Take `O=C1/C(=C\c2ccc(Br)cc2)CCCc2ccccc21`: the TGI in the test with OVCAR-4 ovarian is 26.3 µM; with SK-MEL-2 melanoma it was 39.2 µM; in the test on COLO 205 colon, 31.8 µM; with SF-539 CNS it was 43.1 µM; with PC-3 prostate, 55.4 µM; in the test on KM12 colon, 29 µM. The TGI in the test with CAKI-1 renal was 68.7 µM; with SR leukemia it was 58 µM; in the test on HL-60(TB) leukemia it was 69 µM.
With `O=c1[nH]ncc2[nH]c3c4ccccc4ccc3c12`, the TGI was over 100 µM in the test with OVCAR-4 ovarian; 96.1 µM in the test with COLO 205 colon; over 100 µM in the test on SF-539 CNS; over 100 µM in the test with PC-3 prostate; over 100 µM with KM12 colon; over 100 µM with CAKI-1 renal. The TGI is over 100 µM in the test on SR leukemia, 66.6 µM in the test with NCI-H522 lung and over 100 µM in the test with HL-60(TB) leukemia.
Turning to `O=C(N=Nc1ccc(Cl)cc1Cl)NNc1ccc(Cl)cc1Cl`, the TGI came to 38 µM in the test on OVCAR-4 ovarian; 27 µM with SK-MEL-2 melanoma; 34.8 µM in the test with PC-3 prostate; 52.9 µM in the test on CAKI-1 renal; 78.3 µM in the test on SR leukemia; 41.9 µM with NCI-H522 lung. For the same compound, the TGI in the test on HL-60(TB) leukemia was 49.8 µM.
For the compound `O=C(c1cccs1)c1nccc2c1cnc1ccccc12`, the TGI in the test on OVCAR-4 ovarian, in the test with SK-MEL-2 melanoma, with COLO 205 colon, with SF-539 CNS, in the test with PC-3 prostate and with KM12 colon was over 100 µM in each case. In addition, the TGI in the test with CAKI-1 renal, in the test with SR leukemia and with HL-60(TB) leukemia was over 100 µM each time.
In the case of `CC1(C)OCC(C2OC3OC(C)(C)OC3C2c2ccccc2)O1` (stereo not drawn), the TGI in the test with OVCAR-4 ovarian was over 100 µM; in the test with SK-MEL-2 melanoma it was 64.8 µM; with COLO 205 colon, 54 µM; with SF-539 CNS, over 100 µM; with PC-3 prostate, 98.7 µM; with KM12 colon it was over 100 µM. Moreover, the TGI with SR leukemia is over 100 µM; with NCI-H522 lung, over 100 µM; in the test with HL-60(TB) leukemia, 50 µM.
On to `N#Cc1c(=O)c2ccccc2n2ccccc12`, for which the TGI was over 100 µM with OVCAR-4 ovarian; 90.8 µM in the test on SK-MEL-2 melanoma; over 100 µM in the test on COLO 205 colon; over 100 µM with PC-3 prostate; over 100 µM in the test with KM12 colon; over 100 µM with CAKI-1 renal. The TGI with SR leukemia, in the test with NCI-H522 lung and in the test with HL-60(TB) leukemia was over 100 µM throughout.
With `Cc1ccc(S(=O)C[C@](NC(=O)OCc2ccccc2)(Sc2ccccc2)C(F)F)cc1` (stereo partly drawn), the TGI is 41.4 µM in the test with OVCAR-4 ovarian; 71.6 µM in the test with SK-MEL-2 melanoma; 35.9 µM in the test on COLO 205 colon; 74.2 µM in the test with PC-3 prostate; 31.9 µM with KM12 colon; 50.4 µM with CAKI-1 renal. Also, the figures for the TGI with SR leukemia, in the test with NCI-H522 lung and in the test with HL-60(TB) leukemia were 30.7 µM, 22.4 µM and 24.9 µM, respectively.
Consider `Cc1ccc2nc3n[nH]c(N)c3nc2c1`, for which the TGI with OVCAR-4 ovarian, in the test with SK-MEL-2 melanoma, in the test on COLO 205 colon, in the test on SF-539 CNS, in the test on PC-3 prostate and in the test on KM12 colon was over 100 µM throughout. In addition, the TGI in the test on CAKI-1 renal, in the test with SR leukemia and in the test with NCI-H522 lung was over 100 µM in each case.
